Laboratory results taken from patent publication US9212168B2 (priority 2011, dated 2015).

The molecules below were run on HCV genotype 1a replicon (assay: HCV genotype 1a replicon assay (NS3 protease activity readout)). Settings: HCV genotype 1a replicon.
Assay type: cell-based, hepatitis C virus
Method in brief: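 Genotype 1a subgenomic replicon cells (APC89, Huh7.5) were treated with compound dose-responses in G418-free medium, 0.5% DMSO final, for 48 or 72 hours at 37° C. Lysate NS3/4a protease activity measured with 15 μM FRET substrate, 20 min at 37° C (ex 340/em 509 nm); EC50 by 4-parameter fit.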
`CNC(=O)N1C[C@@H](C)N(c2ccc(C(=O)Nc3cc(OC(F)(F)F)c(-c4ccc(-c5c[nH]c([C@@H]6C[C@H](C)CN6C(=O)[C@H](NC(=O)OC)C(C)(C)C)n5)cc4)cc3Cl)cn2)C[C@@H]1C` [Example 7-2] was tested, and the “Genotype 1a” value was “A (A represents a pEC50 value between 6 and 8 (EC50 between 1 μM and 10 nM))”. In the case of `COC(=O)N[C@H](C(=O)N1C[C@@H](C)C[C@H]1c1nc(-c2ccc(-c3ccc(NC(=O)c4ccc(N5CCN(C(=O)C6CC6)C[C@H]5C)nc4)cc3C(F)(F)F)cc2)c[nH]1)C(C)C` [Example 1-65], the “Genotype 1a” value is reported as “C (C represents pEC50 between and 9 and about 10, (EC50 between 1 nM and 0.1 nM))”. In the case of `COC(=O)N[C@H](C(=O)N1C[C@@H](N(C)C)C[C@H]1c1nc(-c2ccc(-c3cc(Cl)c(NC(=O)c4ccc(N5CCN(C(=O)[C@H]6CC6(C)C)C[C@H]5C)nc4)cc3OC(F)(F)F)cc2)c(Cl)[nH]1)C(C)C` [Example 2-8], the “Genotype 1a” value is reported as “D (D represents pEC50>10 (EC50<0.1 nM))”. With `COC(=O)N[C@H](C(=O)N1C[C@@H](OC)C[C@H]1c1nc(-c2ccc(-c3cc(Cl)c(C(=O)Nc4ccc(N5CCN(C(=O)C(C)(C)CO)C[C@H]5C)nc4)cc3OC(F)(F)F)cc2)c[nH]1)C1CCOCC1` [Example 22-17] the “Genotype 1a” value was “D (D represents pEC50>10 (EC50<0.1 nM))”. For `COC(=O)NC(C(=O)N1C[C@@H](OC)C[C@H]1c1nc(-c2ccc(-c3cc(Cl)c(NC(=O)c4ccc(N5CCN(C(=O)C(C)(C)C)C[C@H]5C)nc4)cc3C(F)(F)F)cc2)c[nH]1)C1CCS(=O)(=O)CC1` (single isomer, unassigned) [Example 19-18], the “Genotype 1a” value was “C (C represents pEC50 between and 9 and about 10, (EC50 between 1 nM and 0.1 nM))”. In the case of `COC(=O)NC(C(=O)N1CC(OC)CC1c1nc(-c2ccc(-c3cc(F)c(NC(=O)c4ccc(N5CCN(C(=O)C(C)(C)C)CC5C)nc4)cc3OC(F)(F)F)cc2)c[nH]1)C(C)(C)O` (centres unmarked) [Example 16-6], the “Genotype 1a” value is reported as “D (D represents pEC50>10 (EC50<0.1 nM))”. With `COC(=O)N[C@@H](C(=O)N1C[C@@H](OC)C[C@H]1c1nc(-c2ccc(-c3cc(Cl)c(NC(=O)c4ccc(N5CCN(C(=O)C(C)(C)CO)C[C@H]5C)nc4)cc3C(F)(F)F)cc2)c[nH]1)C1CCCCC1` [Example 19-14] the “Genotype 1a” value was “A (A represents a pEC50 value between 6 and 8 (EC50 between 1 μM and 10 nM))”. `COC(=O)N[C@H](C(=O)N1C[C@@H](C)C[C@H]1c1nc(-c2ccc(-c3cc(Cl)c(C(=O)Nc4ccc(N5CCN(C(=O)C(C)(C)C)C[C@@H]5C)nc4)cc3OC(F)(F)F)cc2)c[nH]1)C1CCOCC1` [24-2] was tested, and the “Genotype 1a” value was “C (C represents pEC50 between and 9 and about 10, (EC50 between 1 nM and 0.1 nM))”. With `COC(=O)N[C@H](C(=O)N1C[C@@H](C)C[C@H]1c1nc(-c2ccc(-c3cc(Cl)c(NC(=O)c4ccc(N5CCN(C(=O)C(C)(C)CO)C(CO)C5)nc4)cc3OC(F)(F)F)cc2)c[nH]1)C(C)C` (some centres unmarked) [Example 14-3] the “Genotype 1a” value was “C (C represents pEC50 between and 9 and about 10, (EC50 between 1 nM and 0.1 nM))”. With `COC(=O)N[C@H](C(=O)N1C[C@@H](O)C[C@H]1c1nc(-c2ccc(-c3ccc(NC(=O)c4ccc(N5CCN(C(=O)c6c[nH]cn6)C[C@H]5C)nc4)cc3)cc2)c[nH]1)C(C)C` [Example 26-2] the “Genotype 1a” value was “B (B represents pEC50 between 8 and 9 (EC50 between 1 and 10 nM))”. With `COC(=O)N[C@H](C(=O)N1[C@@H](C)CC[C@H]1c1nc(-c2ccc(-c3ccc(C(=O)Nc4ccc(N5CCN(C(=O)C(C)(C)C)C[C@H]5C)nc4)cc3OC(F)(F)F)cc2)c[nH]1)C(C)C` [Example 18-4] the “Genotype 1a” value was “C (C represents pEC50 between and 9 and about 10, (EC50 between 1 nM and 0.1 nM))”.

Same assay, conditions: Hepatitis C virus, read-out: Genotype 1a, HCV genotype 1a replicon
`COC(=O)N[C@H](C(=O)N1C[C@@H](C)C[C@H]1c1nc(-c2ccc(-c3cc(Cl)c(NC(=O)c4ccc(N5CCN(C(=O)C(C)(C)CNS(C)(=O)=O)C[C@H]5C)nc4)cc3OC(F)(F)F)cc2)c[nH]1)C(C)C` [Example 12-46] was tested, and the EC50 was < 0.1 nM. For `COC(=O)N[C@H](C(=O)N1C[C@@H](C(N)=O)C[C@H]1c1nc(-c2ccc(-c3cc(Cl)c(NC(=O)c4ccc(N5CCN(C(=O)OC(C)(C)C)C[C@H]5C)nc4)cc3OC(F)(F)F)cc2)c[nH]1)C(C)C` [Example 15-10], the EC50 was 1 to 10 nM. Work on `COC(=O)N[C@@H](C(=O)N1C[C@@H](C)C[C@H]1c1nc(-c2ccc(-c3cc(Cl)c(NC(=O)c4ccc(N5CCN(C(=O)C(C)(C)C)C[C@H]5C)nc4)cc3OC(F)(F)F)cc2)c[nH]1)C1C[C@@H](C)O[C@@H](C)C1` (some centres unmarked) [Example 13-43] yielded an EC50 of 1 to 10 nM. Molecule `CCC(=O)NCC(C)(C)C(=O)N1CCN(c2ccc(C(=O)Nc3cc(OC(F)(F)F)c(-c4ccc(-c5c[nH]c([C@@H]6C[C@H](C)CN6C(=O)[C@@H](NC(=O)OC)C(C)C)n5)cc4)cc3Cl)cn2)[C@H](C)C1` [Example 12-41] has an EC50 of 0.1 to 1 nM. `COC(=O)N[C@H](C(=O)N1C[C@@H](N(C)CCN)C[C@H]1c1nc(-c2ccc(-c3cc(Cl)c(NC(=O)c4ccc(N5CCN(C(=O)C(C)(C)C)C[C@H]5C)nc4)cc3OC(F)(F)F)cc2)c[nH]1)C(C)C` [Example 15-8] was tested, and the EC50 was 0.1 to 1 nM. Molecule `COC(=O)N[C@H](C(=O)N1C[C@@H](N(C)C)C[C@H]1c1nc(-c2ccc(-c3ccc(C(=O)Nc4ccc(N5CCN(C(=O)N(C)C)C[C@H]5C)nc4)cc3OC(F)(F)F)cc2)c(Cl)[nH]1)C(C)C` [Example 10-4] has an EC50 of 0.1 to 1 nM. `COC(=O)N[C@H](C(=O)N1C[C@@H](C)C[C@H]1c1nc(-c2ccc(-c3cc(F)c(NC(=O)c4ccc(N5CCN(C(=O)C(C)(C)CO)C[C@H]5C)nc4)cc3OC(F)(F)F)cc2)c[nH]1)[C@H](C)OC` [Example 13-25] was tested, and the EC50 was 0.1 to 1 nM. Work on `COC(=O)N[C@H](C(=O)N1C[C@@H](C)C[C@H]1c1nc(-c2ccc(-c3cc(Cl)c(NC(=O)c4ccc(N5CCN(C(=O)C6CCOCC6)C[C@H]5C)nc4)cc3OC(F)(F)F)cc2)c[nH]1)C(C)C` [Example 12-27] yielded an EC50 of 0.1 to 1 nM. For `COC(=O)N[C@H](C(=O)N1C[C@@H](C)C[C@H]1c1nc(-c2ccc(-c3cc(F)c(NC(=O)c4ccc(N5CCN(C(=O)C(C)(C)CO)C[C@H]5C)nc4)cc3OC(F)(F)F)cc2)c[nH]1)C(C)(C)O` [Example 13-23], the EC50 was < 0.1 nM. For `COC(=O)N[C@H](C(=O)N1C[C@@H](C)C[C@H]1c1nc(-c2ccc(-c3cc(Cl)c(NC(=O)c4ccc(N5CCN(C(=O)C6(C)COC6)C[C@H]5C)nc4)cc3OC(F)(F)F)cc2)c[nH]1)C(C)C` [Example 12-48], the EC50 was < 0.1 nM. Molecule `COC(=O)N[C@H](C(=O)N1C[C@@H](C)C[C@H]1c1nc(-c2ccc(-c3cc(Cl)c(NC(=O)c4ccc(N5CCN(C(=O)C(C)(C)CNC(=O)CCCC(=O)O)C[C@H]5C)nc4)cc3OC(F)(F)F)cc2)c[nH]1)C(C)C` [Example 12-34] has an EC50 of 0.1 to 1 nM. In the case of `COC(=O)N[C@H](C(=O)N1C[C@@H](C)C[C@H]1c1nc(-c2ccc(-c3cc(F)c(NC(=O)c4ccc(N5CCN(C(=O)C(C)(C)CO)C[C@H]5C)nc4)cc3OC(F)(F)F)cc2)c[nH]1)[C@H](C)O` [Example 13-26], the EC50 is reported as < 0.1 nM. `COCC(=O)N1CCC[C@@]1(C)C(=O)N1CCN(c2ccc(NC(=O)c3ccc(-c4ccc(-c5c[nH]c([C@@H]6C[C@@H]7CCCC[C@@H]7N6C(=O)[C@@H](NC(=O)OC)C(C)C)n5)cc4)c(OC(F)(F)F)c3)cn2)[C@H](C)C1` [Example 6-13] was tested, and the EC50 was < 0.1 nM. With `COC(=O)N[C@H](C(=O)N1C[C@@H](C)C[C@H]1c1nc(-c2ccc(-c3cc(Cl)c(NC(=O)c4ccc(N5CCN(C(=O)NN6CCS(=O)(=O)CC6)C[C@H]5C)nc4)cc3OC(F)(F)F)cc2)c[nH]1)C(C)C` [Example 12-19] the EC50 was < 0.1 nM. Molecule `COC(=O)N1CCN(C(C(=O)N2C[C@@H](C)C[C@H]2c2nc(-c3ccc(-c4cc(Cl)c(NC(=O)c5ccc(N6CCN(C(=O)C(C)(C)C)C[C@H]6C)nc5)cc4OC(F)(F)F)cc3)c[nH]2)c2ccccc2)CC1` (some centres unmarked) [Example 13-4] has an EC50 of 0.1 to 1 nM.
